Data set [1] in a line: In vitro cytotoxicity, MTT assay. Format: cell-based. Particulars: human, HepG2 cells, 24 h, control = 100, read-out: Cell Viability; for viability at 24 h, 50 μg/mL: HepG2, 50 μg/mL; for viability at 24 h, 100 μg/mL: HepG2, 100 μg/mL; for viability at 24 h, 200 μg/mL: HepG2, 200 μg/mL; for viability at 24 h, 500 μg/mL: HepG2, 500 μg/mL; for viability at 24 h, 1000 μg/mL: HepG2, 1000 μg/mL. The method, then: (§1) HepG2 cell line was obtained from the cell culture laboratory established in The University of Lahore. These cell lines were preserved in cryo vials present in liquid nitrogen. Cryo vials were revived for further processing.
(§2) The cryo vials obtained from liquid nitrogen cylinder were thawed. Then HepG2 cells were cultured in the culturing flask in which DMEM-HG along with 10% fetal bovine serum (FBS), supplemented with […] (Sigma) and 100 U/mL streptomycin (Sigma) were added. Cultures were maintained in a humidified incubator supplied with 5% CO2 at 37 °C. Experiments were performed in triplicates. When cultured HepG2 cells achieved 70–80% confluence their subculturing was conducted. For splitting, the cells attached to the walls of the culturing flask were washed with 1× phosphate buffer saline (PBS) and incubated with 0.05% trypsin-EDTA until cells detached from the surface of culturing flask. The detachment of the cells was confirmed by observing the flask under the inverted microscope. A few drops of FBS were added to the flask and mixed well by stirring. The mixture was centrifuged at 2000 rpm for 5 min. After centrifugation the supernatant was removed, and pellet was resuspended. HepG2 cells were cultured onto 96-well plates for measurement of cell viability. Treatment was given for both compounds at a concentration of 0–1000 µg/mL for 24 h.
(§3) After 4 h formazan crystals were solubilized with 10% sodium dodecylsulphate (SDS) (Invitrogen Inc.) and absorbance was taken at 570 nm. Percentage viability was calculated according to the following formula:% Viable cells = ((abs sample − abs blank) / (abs control − abs blank)) × 100 (1) where abs stands for absorbance.

The test system of data set [2] is HepG2 cells. The experiment in a line: In vitro cytotoxicity, MTT assay. Format: cell-based. Particulars: for Status: HepG2, MTT, 0–1000 µg/mL, 24 h. The method, then:
as §1, §2, §3

Data set [3] concerns the target Butyrylcholinesterase (BChE) (Equus caballus, UniProt P81908). The data set can be described thus: biochemical. To be noted: Ellman's method, triplicate; read-out: Butyrylcholinesterse (BChE) IC50 ± SEM. The method, then:
(§4) Modified Ellman’s method was adopted to investigate the inhibitory potential of newly synthesized compounds against cholinesterase enzymes. The assay protocol involved 96-well plates (100 μL per well). Each well contained 20 μL of assay buffer solution, 10 μL of test sample, and 10 μL of 0.5 U/mg of AChE (for AChE inhibition assay) or 10 μL of 3.4 U/mg of BChE (for BChE inhibition assay). This mixture was incubated at 25 °C for 10 min followed by the addition of substrate (10 μL). For AChE inhibition assay, acetylthiocholine iodide (ATCI, 1 mM) while for BChE assay, butyrylthiocholine chloride (BTCCl, 1 mM), was added. This mixture was incubated for 15 min at 37 °C. Ellman reagent (5,5′-dithio-bis(2-nitrobenzoic acid), DTNB, 3 mM) was added. […] Blank assay was also performed. All the analyses were performed in triplicate. IC50 values were also calculated for the synthesized compounds in GraphPad prism 5.0. using nonlinear regression method.

The target of data set [4] is Acetylcholinesterase (AChE) (Electrophorus electricus, UniProt O42275). The data set can be described thus: biochemical. To be noted: Ellman's method, triplicate; read-out: Acetylcholinesterase (AChE) IC50 ± SEM. The method, then: as §4

Each structure is given as a SMILES string. Values joined by “and” are separate entries in the source; they are usually repeats but may differ in a detail not shown here. Equal values may be shown once.

Acetylcholinesterase (AChE), sequence (O42275 24-633): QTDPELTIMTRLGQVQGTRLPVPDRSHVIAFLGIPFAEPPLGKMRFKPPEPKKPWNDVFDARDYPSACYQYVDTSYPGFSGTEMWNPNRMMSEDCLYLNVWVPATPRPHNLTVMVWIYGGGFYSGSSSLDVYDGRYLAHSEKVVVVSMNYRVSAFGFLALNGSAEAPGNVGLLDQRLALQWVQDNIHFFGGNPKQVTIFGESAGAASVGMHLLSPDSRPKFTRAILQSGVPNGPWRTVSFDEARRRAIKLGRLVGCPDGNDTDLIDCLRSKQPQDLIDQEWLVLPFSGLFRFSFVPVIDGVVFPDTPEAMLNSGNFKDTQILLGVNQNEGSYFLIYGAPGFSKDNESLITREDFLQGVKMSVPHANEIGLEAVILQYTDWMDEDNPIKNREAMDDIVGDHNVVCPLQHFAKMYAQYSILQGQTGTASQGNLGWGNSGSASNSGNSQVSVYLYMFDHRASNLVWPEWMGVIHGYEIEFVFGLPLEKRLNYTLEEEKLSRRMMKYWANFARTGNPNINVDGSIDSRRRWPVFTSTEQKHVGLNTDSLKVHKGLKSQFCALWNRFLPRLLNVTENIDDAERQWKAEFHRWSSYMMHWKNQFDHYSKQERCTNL
Butyrylcholinesterase (BChE), sequence (P81908 whole entry): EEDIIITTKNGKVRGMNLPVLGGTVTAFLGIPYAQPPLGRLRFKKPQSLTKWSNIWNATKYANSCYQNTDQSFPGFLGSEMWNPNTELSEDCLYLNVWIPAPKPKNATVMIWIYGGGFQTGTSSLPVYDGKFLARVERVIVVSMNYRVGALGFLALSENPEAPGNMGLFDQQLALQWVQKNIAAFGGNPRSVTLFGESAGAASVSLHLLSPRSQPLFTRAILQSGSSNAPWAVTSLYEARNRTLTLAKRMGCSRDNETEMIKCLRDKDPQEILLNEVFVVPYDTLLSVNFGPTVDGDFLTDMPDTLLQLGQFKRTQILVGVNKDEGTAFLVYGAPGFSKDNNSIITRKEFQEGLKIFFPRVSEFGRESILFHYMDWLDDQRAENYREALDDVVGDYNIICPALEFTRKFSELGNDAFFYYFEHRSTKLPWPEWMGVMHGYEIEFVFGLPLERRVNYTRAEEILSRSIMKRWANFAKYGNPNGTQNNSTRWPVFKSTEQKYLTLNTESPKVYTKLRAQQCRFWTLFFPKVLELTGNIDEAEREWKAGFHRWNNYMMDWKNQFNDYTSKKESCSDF

Turning to `Cc1ccc2nc(N3CCCCC3)c(C=NNC(=S)Nc3cccc(Cl)c3)cc2c1` [Compound 5f, N-(3-Chlorophenyl)-2-((6-methyl-2-(piperidin-1-yl)quinolin-3-yl)methylene)hydrazine carbothioamide], in data set [1], the viability at 24 h, 50 μg/mL came out at 84.8%; the viability at 24 h, 100 μg/mL is 94.9%; the viability at 24 h, 200 μg/mL came to 93.9%; the viability at 24 h, 500 μg/mL was 93.2%. In addition, the viability at 24 h, 1000 μg/mL in data set [1] came out at 56.9%. Further, the Status result in data set [2] is reported as “Cytotoxic”. For the same compound, the IC50 in data set [3] is 24.6 ± 0.57 µM. Further, the IC50 in data set [4] was 23.9 ± 0.25 µM.

In the case of `Cc1ccc2nc(N3CCCCC3)c(C=NNC(=S)Nc3ccc(Cl)cc3)cc2c1` [Compound 5g, N-(4-Chlorophenyl)-2-((6-methyl-2-(piperidin-1-yl)quinolin-3-yl)methylene)hydrazine carbothioamide], in data set [1], the viability at 24 h, 50 μg/mL came out at 84.3%; the viability at 24 h, 100 μg/mL was found to be 96.4%; the viability at 24 h, 200 μg/mL was 94.1%; the viability at 24 h, 500 μg/mL was 122%. In addition, the viability at 24 h, 1000 μg/mL in data set [1] was 135%. The Status result in data set [2] was “Proliferative”. In data set [3], the IC50 stood at 23.1 ± 0.11 µM. Moreover, the 50% inhibitory concentration (IC50) in data set [4] was found to be 19.85 ± 0.14 µM.

Regarding `Cc1ccc2nc(N3CCCCC3)c(C=NNC(=S)Nc3ccccc3Cl)cc2c1` [Compound 5e, N-(2-Chlorophenyl)-2-((6-methyl-2-(piperidin-1-yl)quinolin-3-yl)methylene)hydrazine carbothioamide], in data set [1], the viability at 24 h, 50 μg/mL is 94.2%; the viability at 24 h, 100 μg/mL was 97.2%; the viability at 24 h, 200 μg/mL was determined as 158%; the viability at 24 h, 500 μg/mL was 196%. Moreover, the viability at 24 h, 1000 μg/mL in data set [1] stood at 76.3%. In addition, the Status entry in data set [2] is on record as “Cytotoxic”. Further, the IC50 in data set [3] was 40.26 ± 0.17 µM. Further, the 50% inhibitory concentration (IC50) in data set [4] is 35.2 ± 0.54 µM.

In the case of `Cc1ccc2nc(N3CCCCC3)c(C=NNC(=S)Nc3cccc(F)c3)cc2c1` [Compound 5i, N-(3-Fluorophenyl)-2-((6-methyl-2-(piperidin-1-yl)quinolin-3-yl)methylene)hydrazine carbothioamide], in data set [1], the viability at 24 h, 50 μg/mL worked out at 118%; the viability at 24 h, 100 μg/mL was determined as 99.4%; the viability at 24 h, 200 μg/mL came out at 97.2%; the viability at 24 h, 500 μg/mL worked out at 99.4%. In data set [1], the viability at 24 h, 1000 μg/mL came to 149%. Further, the Status entry in data set [2] is on record as “Proliferative”. Besides, in data set [3], the concentration for half-maximal inhibition (IC50) is 36.23 ± 0.02 µM. In data set [4], the IC50 was determined as 24.1 ± 0.43 µM.

On to `Cc1ccc2nc(N3CCCCC3)c(C=NNC(=S)Nc3ccccc3F)cc2c1` [Compound 5h, N-(2-Fluorophenyl)-2-((6-methyl-2-(piperidin-1-yl)quinolin-3-yl)methylene)hydrazine carbothioamide], for which, in data set [1], the viability at 24 h, 50 μg/mL worked out at 113%; the viability at 24 h, 100 μg/mL was 121%; the viability at 24 h, 200 μg/mL stood at 83.8%; the viability at 24 h, 500 μg/mL was found to be 151%. In addition, the viability at 24 h, 1000 μg/mL in data set [1] worked out at 209%. The Status entry in data set [2] was “Proliferative”. The half-maximal inhibitory concentration (IC50) in data set [3] was determined as 25.1 ± 0.99 µM. In addition, in data set [4], the half-inhibitory concentration (IC50) came out at 31.3 ± 0.37 µM.

With `Cc1ccc2nc(N3CCCCC3)c(C=NNC(=S)Nc3ccc(F)cc3)cc2c1` [Compound 5j, N-(4-Fluorophenyl)-2-((6-methyl-2-(piperidin-1-yl)quinolin-3-yl)methylene)hydrazine carbothioamide], in data set [1], the viability at 24 h, 50 μg/mL was 93.4%; the viability at 24 h, 100 μg/mL came to 98.1%; the viability at 24 h, 200 μg/mL turned out to be 107%; the viability at 24 h, 500 μg/mL was 138%. In data set [1], the viability at 24 h, 1000 μg/mL stood at 166%. Moreover, the Status result in data set [2] was “Proliferative”. Besides, the IC50 in data set [3] came to 42.4 ± 0.44 µM. The concentration for half-maximal inhibition (IC50) in data set [4] was determined as 28.2 ± 0.94 µM.

Consider `Cc1ccc2nc(N3CCCCC3)c(C=NNC(N)=S)cc2c1` [Compound 5a, 2-((6-Methyl-2-(piperidin-1-yl)quinolin-3-yl)methylene)hydrazinecarbothioamide], for which, in data set [1], the viability at 24 h, 50 μg/mL was 95.4%; the viability at 24 h, 100 μg/mL turned out to be 88.9%; the viability at 24 h, 200 μg/mL stood at 92.8%; the viability at 24 h, 500 μg/mL turned out to be 95.8%. Moreover, in data set [1], the viability at 24 h, 1000 μg/mL came out at 102%. The Status entry in data set [2] was “Non-cytotoxic”. The half-maximal inhibitory concentration (IC50) in data set [3] came out at 35.3 ± 0.01 µM. In data set [4], the IC50 is 27.6 ± 0.08 µM.

As for `Cc1ccc(NC(=S)NN=Cc2cc3cc(C)ccc3nc2N2CCCCC2)c(C)c1` [Compound 5c, N-(2,4-Dimethylphenyl)-2-((6-methyl-2-(piperidin-1-yl)quinolin-3-yl)methylene)hydrazine carbothioamide], in data set [1], the viability at 24 h, 50 μg/mL was determined as 105%; the viability at 24 h, 100 μg/mL amounted to 109%; the viability at 24 h, 200 μg/mL is 122%; the viability at 24 h, 500 μg/mL turned out to be 188%. For the same compound, the viability at 24 h, 1000 μg/mL in data set [1] worked out at 262%. Also, the Status result in data set [2] is listed as “Proliferative”. Further, the IC50 in data set [3] came to 37.2 ± 0.83 µM. Besides, in data set [4], the half-maximal inhibitory concentration (IC50) came out at 42.3 ± 0.99 µM.

For the compound `CCc1ccc(NC(=S)NN=Cc2cc3cc(C)ccc3nc2N2CCCCC2)cc1` [Compound 5k, N-(4-Ethylphenyl)-2-((6-methyl-2-(piperidin-1-yl)quinolin-3-yl)methylene)hydrazine carbothioamide], in data set [1], the viability at 24 h, 50 μg/mL turned out to be 111%; the viability at 24 h, 100 μg/mL came to 110%; the viability at 24 h, 200 μg/mL turned out to be 99.6%; the viability at 24 h, 500 μg/mL was 106%. For the same compound, the viability at 24 h, 1000 μg/mL in data set [1] is 132%. The Status result in data set [2] is listed as “Proliferative”. Also, in data set [3], the IC50 was 32 ± 0.87 µM. For the same compound, the concentration for half-maximal inhibition (IC50) in data set [4] was determined as 30.6 ± 0.56 µM.

Turning to `Cc1cccc(C)c1NC(=S)NN=Cc1cc2cccc(C)c2nc1N1CCCCC1` [Compound 6d, N-(2,6-Dimethylphenyl)-2-((8-methyl-2-(piperidin-1-yl)quinolin-3-yl)methylene)hydrazine carbothioamide], in data set [1], the viability at 24 h, 50 μg/mL worked out at 75%; the viability at 24 h, 100 μg/mL was 93.9%; the viability at 24 h, 200 μg/mL was found to be 91.3%; the viability at 24 h, 500 μg/mL stood at 129%. Moreover, the viability at 24 h, 1000 μg/mL in data set [1] is 173%. Further, in data set [2], the Status entry is recorded as “Proliferative”. Moreover, the IC50 in data set [3] is < 20 µM and 17.9 µM. In addition, the IC50 in data set [4] was < 20 µM and 12.9 µM.

`Cc1cccc2cc(C=NNC(=S)Nc3ccccc3F)c(N3CCCCC3)nc12` [Compound 6h, N-(2-Fluorophenyl)-2-((8-methyl-2-(piperidin-1-yl)quinolin-3-yl)methylene)hydrazine carbothioamide]: in data set [1], the viability at 24 h, 50 μg/mL stood at 100%; the viability at 24 h, 100 μg/mL amounted to 110%; the viability at 24 h, 200 μg/mL came out at 126%; the viability at 24 h, 500 μg/mL amounted to 151%. Also, the viability at 24 h, 1000 μg/mL in data set [1] is 202%. In addition, the Status result in data set [2] is “Proliferative”. Also, in data set [3], the IC50 is 45.12 ± 0.19 µM. In data set [4], the half-maximal inhibitory concentration (IC50) came to 40.23 ± 0.25 µM.

As to `Cc1cccc2cc(C=NNC(N)=S)c(N3CCCCC3)nc12` [Compound 6a, 2-((8-Methyl-2-(piperidin-1-yl)quinolin-3-yl)methylene)hydrazinecarbothioamide], in data set [1], the viability at 24 h, 50 μg/mL was found to be 82.5%; the viability at 24 h, 100 μg/mL was 86.3%; the viability at 24 h, 200 μg/mL amounted to 80.6%; the viability at 24 h, 500 μg/mL worked out at 83.3%. For the same compound, the viability at 24 h, 1000 μg/mL in data set [1] was found to be 77.9%. The Status entry in data set [2] was “Cytotoxic”. Also, the IC50 in data set [3] turned out to be 60.02 ± 0.04 µM. Also, the IC50 in data set [4] worked out at 36.25 ± 0.36 µM.

In turn, `N.N.[Cl][Pt][Cl]` [cisplatin, reference compound] yielded an IC50 in data set [2] (HepG2, standard drug) of 20 µg/mL.

These data come from article PMC7866225, “Microwave-Assisted Synthesis of (Piperidin-1-yl)quinolin-3-yl)methylene)hydrazinecarbothioamides as Potent Inhibitors of Cholinesterases: A Biochemical and In Silico Approach” (Molecules, 2021).
